Drawing on ChEMBL document CHEMBL1146627, “Synthesis and structure-activity relationships of 1-arylmethyl-3-(1-methyl-2-amino)ethyl-5-aryl-6-methyluracils as antagonists of the human GnRH Receptor” (Bioorg Med Chem Lett, 2003), this text covers Ki for 26 compounds.

The target in this assay is T1, Gonadotropin-releasing hormone receptor (Homo sapiens, UniProt P30968).
T1 sequence (P30968 whole entry): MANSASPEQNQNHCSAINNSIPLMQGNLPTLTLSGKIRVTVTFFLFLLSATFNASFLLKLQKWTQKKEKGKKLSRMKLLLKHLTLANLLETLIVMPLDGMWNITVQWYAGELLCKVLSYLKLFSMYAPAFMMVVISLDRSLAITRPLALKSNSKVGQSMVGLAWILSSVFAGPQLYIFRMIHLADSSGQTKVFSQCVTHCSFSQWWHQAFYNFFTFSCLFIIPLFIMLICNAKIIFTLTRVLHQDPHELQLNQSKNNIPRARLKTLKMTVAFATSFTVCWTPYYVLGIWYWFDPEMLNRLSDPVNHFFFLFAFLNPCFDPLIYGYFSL
Briefly: Binding affinity towards human gonadotropin-releasing hormone receptor expressed in HEK293 cells. It counts as cell-based.
As a reminder, the Ki is the equilibrium dissociation constant of an inhibitor or competing ligand from its target. High values mean a looser hold on the target, low ones a stronger hold on the target. The compound `COc1ccc(CNC[C@@H](C)n2c(=O)c(-c3cccc(OC)c3)c(C)n(Cc3c(F)cccc3F)c2=O)cc1` showed a Ki of 720 nM.

`COc1cccc(-c2c(C)n(Cc3c(F)cccc3F)c(=O)n([C@@H](C)CN(C)Cc3ccccc3)c2=O)c1` came in with a Ki of 2000 nM.

On to `COc1cccc(-c2c(C)n(Cc3c(F)cccc3F)c(=O)n([C@H](C)CN(C)Cc3ccccc3)c2=O)c1`, for which affinity was put at a Ki of 150 nM.

Compound `COc1cccc(-c2c(C)n(Cc3c(F)cccc3F)c(=O)n([C@H](C)CNCC3CC3)c2=O)c1` had a Ki of 780 nM.

Compound `COc1cccc(-c2c(C)n(Cc3c(F)cccc3F)c(=O)n([C@@H](C)CNCC3CC3)c2=O)c1` displayed an inhibition constant (Ki) of 1600 nM.

As to `COc1cccc(-c2c(C)n(Cc3c(F)cccc3F)c(=O)n([C@H](C)CNCc3ccccc3C)c2=O)c1`, the Ki is 70 nM.

Consider `COc1cccc(-c2c(C)n(Cc3c(F)cccc3F)c(=O)n([C@@H](C)CN(C)CC3CC3)c2=O)c1`, for which the Ki came out at 7000 nM.

On to `COc1cccc(-c2c(C)n(Cc3c(F)cccc3F)c(=O)n(C[C@H](C)N(C)CCc3ccccn3)c2=O)c1`, for which the affinity corresponds to a Ki of 5 nM.

Turning to `COc1cccc(-c2c(C)n(Cc3c(F)cccc3F)c(=O)n([C@@H](C)CNC3CCCC3)c2=O)c1`, the Ki was found to be 950 nM.

Compound `COc1cccc(-c2c(C)n(Cc3c(F)cccc3F)c(=O)n(C3CCN(CCc4ccccn4)C3)c2=O)c1` (stereo unspecified) gave a Ki of 8300 nM.

In the case of `COc1cccc(-c2c(C)n(Cc3c(F)cccc3F)c(=O)n(C3CCNC3)c2=O)c1` (stereo unspecified), affinity was put at a Ki of 15000 nM.

`COc1cccc(-c2c(C)n(Cc3c(F)cccc3F)c(=O)n([C@H](C)CN(C)CCc3ccccn3)c2=O)c1` had a Ki of 20 nM.

`COc1cccc(-c2c(C)n(Cc3c(F)cccc3F)c(=O)n(C3CCN(Cc4ccccc4)C3)c2=O)c1` (stereo unspecified): the affinity, expressed as Ki, was 280 nM.

Compound `COc1cccc(-c2c(C)n(Cc3c(F)cccc3F)c(=O)n([C@@H](C)CNCc3ccccc3C)c2=O)c1` returned a Ki of 400 nM.

`COc1cccc(-c2c(C)n(Cc3c(F)cccc3F)c(=O)n([C@@H](C)CN(C)CCc3ccccn3)c2=O)c1` had a Ki of 1800 nM.

The compound `COc1cccc(-c2c(C)n(Cc3c(F)cccc3F)c(=O)n([C@H](C)CNCc3ccc(F)cc3)c2=O)c1` had a Ki of 250 nM.

Consider `COc1cccc(-c2c(C)n(Cc3c(F)cccc3F)c(=O)n([C@@H](C)CNCc3ccccc3)c2=O)c1`, for which the Ki worked out at 370 nM.

For `COc1cccc(-c2c(C)n(Cc3c(F)cccc3F)c(=O)n([C@H](C)CNC3CCCC3)c2=O)c1`, the Ki was determined as 430 nM. This Ki and that of the compound before are within 1.5-fold of each other.

The compound `COc1cccc(-c2c(C)n(Cc3c(F)cccc3F)c(=O)n([C@H](C)CNCC(C)C)c2=O)c1` displayed a Ki of 190 nM. This Ki is about 2.3-fold lower than that of the compound before.

For the compound `COc1cccc(-c2c(C)n(Cc3c(F)cccc3F)c(=O)n([C@@H](C)CNCc3ccccc3F)c2=O)c1`, the affinity corresponds to a Ki of 550 nM. Compared with the last compound, the Ki is about 2.9-fold higher.

For the compound `COc1cccc(-c2c(C)n(Cc3c(F)cccc3F)c(=O)n([C@@H](C)CNCC(C)C)c2=O)c1`, the affinity corresponds to a Ki of 1200 nM.

Turning to `COc1cccc(CNC[C@@H](C)n2c(=O)c(-c3cccc(OC)c3)c(C)n(Cc3c(F)cccc3F)c2=O)c1`, the affinity, expressed as Ki, was 20 nM.

`COc1cccc(-c2c(C)n(Cc3c(F)cccc3F)c(=O)n([C@H](C)CNCc3ccccc3F)c2=O)c1` returned a Ki of 90 nM.

`COc1cccc(-c2c(C)n(Cc3c(F)cccc3F)c(=O)n([C@H](C)CNCc3cccc(F)c3)c2=O)c1`: the affinity corresponds to a Ki of 85 nM.

Regarding `COc1cccc(-c2c(C)n(Cc3c(F)cccc3F)c(=O)n([C@H](C)CN(C)CC3CC3)c2=O)c1`, the Ki is 590 nM.

As to `COc1cccc(-c2c(C)n(Cc3c(F)cccc3F)c(=O)n([C@H](C)CNCc3ccccc3)c2=O)c1`, the affinity, expressed as Ki, was 75 nM.
